Test: Bioavailability of buprenorphine sublingual spray vs Buprenex intramuscular and intravenous injection, crossover study
Settings: for AUC(0-t) / AUC(inf) / Cmax / Tmax / t½ / λz: overnight fast
[1] = Intramuscular 0.3 mg (Buprenex injection)
[2] = Intravenous 0.3 mg (Buprenex bolus injection)
[3] = after sublingual administration (1 mg spray)

Text: This was an open-label, 3-treatment, 3-period, 6-sequence, single-dose, randomized crossover study. Eighteen healthy male and female volunteers were randomly assigned to 1 of 6 treatment sequences. Dosing occurred after an overnight fast and there was a minimum 14-day washout between the dosing in two periods.

Substance: Buprenorphine
- AUC(0-t) [1]: 4.97 ± 0.90 ng·h/mL
- AUC(inf) [1]: 5.50 ± 0.83 ng·h/mL
- Cmax [1]: 1.73 ± 1.08 ng/mL
- Tmax [1]: 0.17 h
- t½ [1]: 12.0 ± 5.31 h
- λz [1]: 0.0655 ± 0.0210
- AUC(0-t) [2]: 5.09 ± 1.01 ng·h/mL
- AUC(inf) [2]: 5.51 ± 1.21 ng·h/mL
- Cmax [2]: 3.95 ± 3.66 ng/mL
- Tmax [2]: 0.083 h
- t½ [2]: 9.37 ± 6.49 h
- λz [2]: 0.1028 ± 0.0641
- absolute bioavailability based on AUC(0-t) [3]: 41.03%
- absolute bioavailability based on AUC(inf) [3]: 42.57%
